# Read-outs that look alike come from different tables or passages of the source.
# Experiments:
# mTOR [1] = target: T1, mTOR (Homo sapiens, UniProt P42345); assay: LanthaScreen TR-FRET displacement binding assay, mTOR
# human MDR1 (P-gp) = assay: in vitro; settings: dog, MDCK-MDR1
# [2] = test system: phosphorylated S6 ribosomal protein [pS6, Ser235/236]; settings: read-out: Cellular assays IC50 pS6 S235/236; A2058 melanoma cells; previously reported, ref [14]; cited from earlier work
# mTOR [3] = target: T1, mTOR; settings: previously reported, ref [14], cited from earlier work; for SI (selectivity index), Ki(PI3Kα)/Ki(mTOR): mTOR over PI3Kα
# PI3Kα (p110α) = PI3Kα (p110α) (Homo sapiens, UniProt P42336); settings: read-out: In vitro binding assays Ki PI3Kα; TR-FRET displacement, mean ± SD; previously reported, ref [14]; cited from earlier work
# Chain of PI3Kα (p110α) (P42336 whole entry): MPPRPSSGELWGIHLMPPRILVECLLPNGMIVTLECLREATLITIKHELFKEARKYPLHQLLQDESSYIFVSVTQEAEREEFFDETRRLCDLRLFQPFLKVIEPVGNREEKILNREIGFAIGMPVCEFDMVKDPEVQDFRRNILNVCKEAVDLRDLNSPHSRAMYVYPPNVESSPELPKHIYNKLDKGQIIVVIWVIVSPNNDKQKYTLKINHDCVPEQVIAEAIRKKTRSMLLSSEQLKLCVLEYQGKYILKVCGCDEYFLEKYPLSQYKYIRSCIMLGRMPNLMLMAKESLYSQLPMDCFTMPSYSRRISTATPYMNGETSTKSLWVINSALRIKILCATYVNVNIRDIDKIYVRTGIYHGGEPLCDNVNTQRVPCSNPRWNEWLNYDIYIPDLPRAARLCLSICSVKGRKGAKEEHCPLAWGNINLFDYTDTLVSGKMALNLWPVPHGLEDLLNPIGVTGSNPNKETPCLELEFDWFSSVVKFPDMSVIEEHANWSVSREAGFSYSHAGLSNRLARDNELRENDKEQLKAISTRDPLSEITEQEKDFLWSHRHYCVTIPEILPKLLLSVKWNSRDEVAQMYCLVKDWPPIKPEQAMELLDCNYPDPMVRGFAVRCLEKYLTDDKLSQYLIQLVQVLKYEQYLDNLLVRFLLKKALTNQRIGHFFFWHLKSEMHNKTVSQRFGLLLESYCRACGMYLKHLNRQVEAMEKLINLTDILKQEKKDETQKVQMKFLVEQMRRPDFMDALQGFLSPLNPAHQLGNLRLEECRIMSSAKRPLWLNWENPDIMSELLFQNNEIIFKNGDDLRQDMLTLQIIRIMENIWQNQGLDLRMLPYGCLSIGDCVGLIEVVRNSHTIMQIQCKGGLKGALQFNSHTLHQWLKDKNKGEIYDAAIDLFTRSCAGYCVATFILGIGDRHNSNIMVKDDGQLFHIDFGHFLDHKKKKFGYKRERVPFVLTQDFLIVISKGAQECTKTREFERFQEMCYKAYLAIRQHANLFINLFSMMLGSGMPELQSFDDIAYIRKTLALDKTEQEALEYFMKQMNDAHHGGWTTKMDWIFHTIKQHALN
# Chain of PI3Kα (p110α) (P27986 whole entry partner): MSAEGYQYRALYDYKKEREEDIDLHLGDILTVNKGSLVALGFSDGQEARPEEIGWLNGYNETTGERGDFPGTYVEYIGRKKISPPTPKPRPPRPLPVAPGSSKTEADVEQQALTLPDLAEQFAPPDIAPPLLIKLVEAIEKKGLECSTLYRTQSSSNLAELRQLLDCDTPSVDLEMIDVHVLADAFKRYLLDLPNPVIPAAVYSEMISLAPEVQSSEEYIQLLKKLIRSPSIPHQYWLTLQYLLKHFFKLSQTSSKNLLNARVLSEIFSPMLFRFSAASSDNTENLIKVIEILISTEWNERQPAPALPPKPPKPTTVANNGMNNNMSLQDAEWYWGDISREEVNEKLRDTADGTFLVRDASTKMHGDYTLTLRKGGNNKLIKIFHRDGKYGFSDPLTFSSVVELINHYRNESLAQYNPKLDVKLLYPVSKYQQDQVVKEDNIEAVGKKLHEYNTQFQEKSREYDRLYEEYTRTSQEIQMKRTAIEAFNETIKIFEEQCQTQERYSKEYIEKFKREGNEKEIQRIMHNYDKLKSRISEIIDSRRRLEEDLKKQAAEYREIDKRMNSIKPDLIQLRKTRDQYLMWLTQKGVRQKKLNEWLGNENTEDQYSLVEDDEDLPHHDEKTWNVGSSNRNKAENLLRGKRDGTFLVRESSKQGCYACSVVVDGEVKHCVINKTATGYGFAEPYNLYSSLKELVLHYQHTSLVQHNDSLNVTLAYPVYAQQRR
# T1 sequence (P42345 1360-2549): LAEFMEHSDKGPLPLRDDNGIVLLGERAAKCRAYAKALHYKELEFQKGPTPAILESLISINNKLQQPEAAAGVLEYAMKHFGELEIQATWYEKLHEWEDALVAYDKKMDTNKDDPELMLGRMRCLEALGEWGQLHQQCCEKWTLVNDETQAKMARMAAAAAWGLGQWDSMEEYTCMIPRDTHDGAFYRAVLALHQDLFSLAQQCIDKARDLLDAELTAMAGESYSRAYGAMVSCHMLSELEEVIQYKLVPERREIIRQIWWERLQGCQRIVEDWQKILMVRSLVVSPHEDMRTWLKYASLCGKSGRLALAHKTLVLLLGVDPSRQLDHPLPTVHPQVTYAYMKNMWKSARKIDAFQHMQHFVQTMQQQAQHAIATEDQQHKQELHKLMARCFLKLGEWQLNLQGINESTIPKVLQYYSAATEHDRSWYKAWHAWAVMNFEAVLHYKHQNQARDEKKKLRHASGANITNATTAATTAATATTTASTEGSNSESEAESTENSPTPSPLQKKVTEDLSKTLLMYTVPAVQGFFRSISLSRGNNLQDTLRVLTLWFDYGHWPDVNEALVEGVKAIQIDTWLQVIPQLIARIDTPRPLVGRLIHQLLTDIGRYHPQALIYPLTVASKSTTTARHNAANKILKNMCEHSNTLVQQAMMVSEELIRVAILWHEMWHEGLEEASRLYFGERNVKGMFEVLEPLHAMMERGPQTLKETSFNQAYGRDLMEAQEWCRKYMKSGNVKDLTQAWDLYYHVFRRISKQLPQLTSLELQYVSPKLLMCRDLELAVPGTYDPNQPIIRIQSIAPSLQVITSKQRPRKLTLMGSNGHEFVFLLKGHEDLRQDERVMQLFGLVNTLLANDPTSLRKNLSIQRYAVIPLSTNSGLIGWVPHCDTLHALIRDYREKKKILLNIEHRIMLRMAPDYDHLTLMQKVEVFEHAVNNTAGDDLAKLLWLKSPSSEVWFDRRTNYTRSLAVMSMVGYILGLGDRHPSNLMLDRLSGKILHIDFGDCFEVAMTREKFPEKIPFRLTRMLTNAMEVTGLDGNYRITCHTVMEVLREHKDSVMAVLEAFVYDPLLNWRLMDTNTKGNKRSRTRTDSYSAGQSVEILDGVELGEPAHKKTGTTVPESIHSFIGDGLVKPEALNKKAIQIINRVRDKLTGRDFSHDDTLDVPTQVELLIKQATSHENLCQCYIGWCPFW
Papp (human MDR1 (P-gp)) [×10⁻⁶ cm/s],SMILES,IC50 [2] [nM],"SI (selectivity index), Ki(PI3Kα)/Ki(mTOR) (mTOR [3])",Ki (PI3Kα (p110α)) [nM],further results
,C[C@@H]1COCCN1c1nc(-c2nc(N)ns2)nc2c1C[C@@H]1COCCN21 [Compound 2],,,,"fold decrease in mTOR affinity (mTOR [1]; 1,2,4-thiadiazole 2 versus pyrimidine 1): > 10 fold"
< 60,C[C@@H]1COCCN1c1nc(-c2nnc(N)s2)nc2c1C[C@@H]1COCCN21 [Compound 4],,,,
,C[C@@H]1COCCN1c1nc(-c2ccc(N)nc2)nc2c1C[C@@H]1COCCN21 [Compound 5],61 ± 12,215,2150 ± 400,"Ki (mTOR [3]; read-out: In vitro binding assays Ki mTOR, TR-FRET displacement, mean ± SD): 10 ± 1.6 nM"
< 60,C[C@@H]1COCCN1c1nc(-c2cnc(N)s2)nc2c1C[C@@H]1COCCN21 [Compound 6],,,,
,C[C@@H]1COCCN1c1nc(-c2cnc(N)nc2C(F)F)nc2c1C[C@@H]1COCCN21 [Compound 8],,,,"SI (selectivity index), Ki(PI3Kα)/Ki(mTOR) (mTOR [1]; mTOR over PI3Kα): < 1"
< 60,"C[C@@H]1COCCN1c1nc(-c2cnc(N)cn2)nc2c1C[C@@H]1COCCN21 [Compound 12b, reference compound]",60 ± 13,212,1690 ± 277,

# Reference: publication PMC8128076 (RSC Medicinal Chemistry, 2021)
